Experimental data as given in ChEMBL document CHEMBL5365452, “Discovery of (S)-N1-(thiazol-2-yl) pyrrolidine-1,2-dicarboxamide derivatives targeting PI3Ka/HDAC6 for the treatment of cancer” (Bioorg Med Chem Lett, 2023).

Tests used:
[1] = biological target: Phosphatidylinositol 4,5-bisphosphate 3-kinase catalytic subunit beta isoform (Homo sapiens, UniProt P42338); assay: Inhibition of PI3Kbeta (unknown origin)
[2] = biological target: T1, Phosphatidylinositol 4,5-bisphosphate 3-kinase catalytic subunit delta isoform (Homo sapiens, UniProt O00329); assay: Inhibition of PI3Kdelta (unknown origin)
T1 sequence (O00329 whole entry): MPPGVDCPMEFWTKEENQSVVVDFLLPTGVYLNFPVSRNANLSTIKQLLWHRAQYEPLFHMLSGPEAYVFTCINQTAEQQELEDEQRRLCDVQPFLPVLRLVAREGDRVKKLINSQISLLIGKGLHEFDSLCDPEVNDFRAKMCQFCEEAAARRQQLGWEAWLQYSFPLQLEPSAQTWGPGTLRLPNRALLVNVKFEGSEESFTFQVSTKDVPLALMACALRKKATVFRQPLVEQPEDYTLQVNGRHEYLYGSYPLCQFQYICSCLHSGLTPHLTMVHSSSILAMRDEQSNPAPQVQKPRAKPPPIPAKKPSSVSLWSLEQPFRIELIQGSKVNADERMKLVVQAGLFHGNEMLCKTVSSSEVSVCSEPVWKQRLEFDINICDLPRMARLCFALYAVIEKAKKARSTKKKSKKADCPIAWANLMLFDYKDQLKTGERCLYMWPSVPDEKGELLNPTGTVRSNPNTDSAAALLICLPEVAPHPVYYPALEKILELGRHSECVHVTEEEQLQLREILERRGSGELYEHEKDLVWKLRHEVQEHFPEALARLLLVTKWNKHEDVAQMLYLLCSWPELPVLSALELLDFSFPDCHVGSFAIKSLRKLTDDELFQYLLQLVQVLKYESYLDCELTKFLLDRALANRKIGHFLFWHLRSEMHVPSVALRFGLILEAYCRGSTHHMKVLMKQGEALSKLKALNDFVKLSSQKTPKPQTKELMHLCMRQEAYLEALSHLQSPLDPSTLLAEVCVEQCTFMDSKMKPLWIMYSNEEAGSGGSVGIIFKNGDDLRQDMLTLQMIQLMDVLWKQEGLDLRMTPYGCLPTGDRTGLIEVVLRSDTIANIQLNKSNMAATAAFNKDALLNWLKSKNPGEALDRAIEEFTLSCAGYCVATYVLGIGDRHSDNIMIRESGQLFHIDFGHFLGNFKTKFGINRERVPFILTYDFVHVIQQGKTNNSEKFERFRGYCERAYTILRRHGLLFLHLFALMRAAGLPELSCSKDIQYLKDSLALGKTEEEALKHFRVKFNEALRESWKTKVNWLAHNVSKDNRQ

[3] = biological target: T2, Histone deacetylase 8 (Homo sapiens, UniProt Q9BY41); assay: Inhibition of HDAC8 (unknown origin)
T2 sequence (Q9BY41 whole entry): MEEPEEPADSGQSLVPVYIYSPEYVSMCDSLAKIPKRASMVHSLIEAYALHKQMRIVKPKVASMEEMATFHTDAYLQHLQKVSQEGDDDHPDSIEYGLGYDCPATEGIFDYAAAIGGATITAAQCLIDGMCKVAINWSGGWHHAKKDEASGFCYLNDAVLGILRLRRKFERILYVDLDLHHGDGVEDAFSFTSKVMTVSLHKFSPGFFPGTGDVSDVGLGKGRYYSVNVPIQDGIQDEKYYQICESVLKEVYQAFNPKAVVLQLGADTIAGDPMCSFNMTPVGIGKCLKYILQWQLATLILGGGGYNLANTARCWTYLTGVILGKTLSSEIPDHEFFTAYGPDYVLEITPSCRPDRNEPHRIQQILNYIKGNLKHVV

[4] = biological target: Histone deacetylase 1 (Homo sapiens, UniProt Q13547); assay: Inhibition of HDAC1 (unknown origin)
[5] = biological target: T3, Histone deacetylase 11 (Homo sapiens, UniProt Q96DB2); assay: Inhibition of HDAC11 (unknown origin)
T3 sequence (Q96DB2 whole entry): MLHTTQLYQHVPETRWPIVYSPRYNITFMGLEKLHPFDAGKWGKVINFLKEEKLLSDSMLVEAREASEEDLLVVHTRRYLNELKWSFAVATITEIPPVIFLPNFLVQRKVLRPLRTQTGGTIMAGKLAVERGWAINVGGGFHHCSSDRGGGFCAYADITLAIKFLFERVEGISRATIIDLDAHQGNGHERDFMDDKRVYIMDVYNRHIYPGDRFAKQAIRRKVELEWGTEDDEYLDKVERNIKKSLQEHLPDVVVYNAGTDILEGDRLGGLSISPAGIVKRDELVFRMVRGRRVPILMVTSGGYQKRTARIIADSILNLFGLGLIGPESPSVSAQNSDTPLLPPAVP

[6] = biological target: Phosphatidylinositol 4,5-bisphosphate 3-kinase catalytic subunit gamma isoform (Homo sapiens, UniProt P48736); assay: Inhibition of PI3Kgamma (unknown origin)
[7] = test system: T47D; assay: Antiproliferative activity against human T47D cells
[8] = test system: MCF7; assay: Antiproliferative activity against human MCF7 cells
[9] = test system: L-363; assay: Antiproliferative activity against human L-363 cells

Sequence of Phosphatidylinositol 4,5-bisphosphate 3-kinase catalytic subunit beta isoform (P42338 whole entry, canonical isoform): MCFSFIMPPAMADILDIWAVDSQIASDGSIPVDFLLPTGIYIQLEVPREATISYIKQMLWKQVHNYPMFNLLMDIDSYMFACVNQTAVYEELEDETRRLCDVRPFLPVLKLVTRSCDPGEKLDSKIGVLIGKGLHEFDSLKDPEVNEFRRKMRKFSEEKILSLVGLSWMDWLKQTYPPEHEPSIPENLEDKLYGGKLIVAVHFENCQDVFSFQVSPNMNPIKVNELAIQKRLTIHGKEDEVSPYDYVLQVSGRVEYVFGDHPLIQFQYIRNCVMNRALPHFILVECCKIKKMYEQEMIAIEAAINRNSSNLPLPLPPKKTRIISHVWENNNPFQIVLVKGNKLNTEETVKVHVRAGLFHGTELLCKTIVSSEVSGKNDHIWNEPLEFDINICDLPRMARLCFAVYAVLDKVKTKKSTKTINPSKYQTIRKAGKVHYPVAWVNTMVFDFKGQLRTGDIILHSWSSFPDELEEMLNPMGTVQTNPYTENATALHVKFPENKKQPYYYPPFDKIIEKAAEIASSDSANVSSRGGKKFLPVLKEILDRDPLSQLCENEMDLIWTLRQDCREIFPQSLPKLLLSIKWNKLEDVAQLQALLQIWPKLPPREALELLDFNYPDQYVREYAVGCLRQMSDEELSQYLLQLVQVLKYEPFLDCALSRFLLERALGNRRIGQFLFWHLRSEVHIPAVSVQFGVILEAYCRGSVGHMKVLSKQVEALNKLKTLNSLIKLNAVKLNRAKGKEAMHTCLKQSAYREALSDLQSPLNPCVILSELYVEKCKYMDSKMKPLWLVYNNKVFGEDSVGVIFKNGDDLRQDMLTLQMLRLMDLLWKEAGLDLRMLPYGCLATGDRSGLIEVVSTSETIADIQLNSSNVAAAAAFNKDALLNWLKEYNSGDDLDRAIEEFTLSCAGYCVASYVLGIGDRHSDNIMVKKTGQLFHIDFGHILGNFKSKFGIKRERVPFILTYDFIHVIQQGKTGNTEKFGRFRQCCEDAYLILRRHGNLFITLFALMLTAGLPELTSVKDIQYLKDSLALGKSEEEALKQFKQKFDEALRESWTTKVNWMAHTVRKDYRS
Sequence of Phosphatidylinositol 4,5-bisphosphate 3-kinase catalytic subunit gamma isoform (P48736 whole entry, canonical isoform): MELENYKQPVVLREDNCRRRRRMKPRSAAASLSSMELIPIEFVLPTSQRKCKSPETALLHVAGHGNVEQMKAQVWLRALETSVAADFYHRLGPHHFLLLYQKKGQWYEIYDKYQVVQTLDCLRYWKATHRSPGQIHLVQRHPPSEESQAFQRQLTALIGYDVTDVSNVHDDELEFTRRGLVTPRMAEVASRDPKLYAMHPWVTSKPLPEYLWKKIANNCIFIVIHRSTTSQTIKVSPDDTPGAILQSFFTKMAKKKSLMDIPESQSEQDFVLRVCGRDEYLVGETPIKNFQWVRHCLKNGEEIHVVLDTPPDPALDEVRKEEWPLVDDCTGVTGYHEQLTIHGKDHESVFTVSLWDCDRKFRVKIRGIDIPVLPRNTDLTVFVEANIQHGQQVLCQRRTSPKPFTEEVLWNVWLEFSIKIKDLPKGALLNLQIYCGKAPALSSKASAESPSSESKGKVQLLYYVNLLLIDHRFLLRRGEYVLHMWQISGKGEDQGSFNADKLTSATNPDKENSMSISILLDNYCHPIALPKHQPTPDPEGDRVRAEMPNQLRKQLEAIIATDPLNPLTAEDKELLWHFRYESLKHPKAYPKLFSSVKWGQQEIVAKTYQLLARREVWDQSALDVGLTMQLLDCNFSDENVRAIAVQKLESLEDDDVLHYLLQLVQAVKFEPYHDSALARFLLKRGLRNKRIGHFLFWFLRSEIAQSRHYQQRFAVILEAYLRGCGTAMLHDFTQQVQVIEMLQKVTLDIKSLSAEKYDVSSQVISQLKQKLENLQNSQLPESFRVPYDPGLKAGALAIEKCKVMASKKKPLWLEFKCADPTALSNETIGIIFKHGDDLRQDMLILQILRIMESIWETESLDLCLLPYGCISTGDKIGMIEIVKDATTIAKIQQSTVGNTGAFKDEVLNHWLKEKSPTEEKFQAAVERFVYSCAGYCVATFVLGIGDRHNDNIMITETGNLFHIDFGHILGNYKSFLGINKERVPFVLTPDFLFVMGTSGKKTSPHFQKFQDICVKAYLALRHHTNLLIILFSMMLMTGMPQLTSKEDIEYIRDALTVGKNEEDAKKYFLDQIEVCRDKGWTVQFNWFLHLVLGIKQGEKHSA
Sequence of Histone deacetylase 1 (Q13547 whole entry): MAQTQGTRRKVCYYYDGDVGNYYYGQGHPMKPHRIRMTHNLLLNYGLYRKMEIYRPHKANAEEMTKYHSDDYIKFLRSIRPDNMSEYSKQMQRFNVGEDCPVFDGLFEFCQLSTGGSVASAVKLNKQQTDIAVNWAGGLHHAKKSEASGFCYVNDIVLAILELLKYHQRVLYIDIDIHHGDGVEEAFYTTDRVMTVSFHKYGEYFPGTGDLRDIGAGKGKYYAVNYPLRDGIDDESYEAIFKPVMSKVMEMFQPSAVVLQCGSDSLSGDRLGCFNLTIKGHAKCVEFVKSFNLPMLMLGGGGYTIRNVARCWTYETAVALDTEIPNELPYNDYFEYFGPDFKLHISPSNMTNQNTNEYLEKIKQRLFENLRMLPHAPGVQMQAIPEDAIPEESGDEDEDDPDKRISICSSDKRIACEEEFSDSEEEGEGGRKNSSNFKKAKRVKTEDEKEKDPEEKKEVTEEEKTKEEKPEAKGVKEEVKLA

Structure (SMILES)	IC50 [1] [nM]	IC50 [2] [nM]	IC50 [3] [nM]	IC50 [4] [nM]	IC50 [5] [nM]	IC50 [6] [nM]	IC50 [7] [nM]	IC50 [8] [nM]	IC50 [9] [nM]
Cc1nc(NC(=O)N2C[C@H](NC(=O)c3ccc(C(=O)NO)cn3)C[C@H]2C(N)=O)sc1-c1ccnc(C(C)(C)C(F)(F)F)c1	> 1000	214	> 2000	471	> 2000	318			
Cc1nc(NC(=O)N2C[C@H](NS(=O)(=O)Cc3ccc(C(=O)NO)cc3)C[C@H]2C(N)=O)sc1-c1ccnc(C(C)(C)C(F)(F)F)c1	880	42	> 2000	> 2000	586	285			
Cc1nc(NC(=O)N2CCC[C@H]2C(N)=O)sc1-c1ccnc(C(C)(C)C(F)(F)F)c1 [ALPELISIB]							2300	250	260
O=C(CCCCCCC(=O)Nc1ccccc1)NO [VORINOSTAT]								3560	
